Experiments:
[1] = test system: proton motive force-driven multidrug efflux pump of P. mirabilis HI4320; experiment: Ethidium bromide (EtBr) efflux assay; assay type: cell-based, Proteus mirabilis; conditions: PRMSE, catechol at 0.25 times the MIC; CCCP 100 μM; untreated cells 35.9
Method: (§1) An overnight grown culture of each strain is diluted 1:100 using MHB-II broth to a final volume of 10 mL and grown to an OD600 of 0.8-1.0 (at 37° C., 150 rpm). […] The tubes are incubated for 1 h (37° C., 150 rpm). The inoculum is then adjusted to 0.4 OD600 with MHB-II broth containing 5 μM EtBr and 2 mL aliquots of this mixture are pelleted (5000×g, 10 min at 4° C.). The pellets are incubated on ice immediately, resuspended in 1 mL of MHB-II, and aliquoted (200 μL) into a polystyrene 96 well black, clear-bottom plate (Corning™, Fisher Scientific, ON, Canada). EtBr efflux from the cells is monitored at room temperature using the microplate reader (ex/em 530/600 nm). Readings are taken at 5 min intervals for 1 h to monitor efflux pump activity. The background fluorescence of the medium is subtracted from all measurements and the assay is repeated independently in triplicate.

[2] = test system: proton motive force-driven multidrug efflux pump of P. aeruginosa PAO1; experiment: Ethidium bromide (EtBr) efflux assay; assay type: cell-based, Pseudomonas aeruginosa; conditions: PRMSE, catechol at 0.25 times the MIC; CCCP 100 μM; untreated cells 37.6
Method: as §1

[3] = test system: proton motive force-driven multidrug efflux pump of P. aeruginosa PA14; experiment: Ethidium bromide (EtBr) efflux assay; assay type: cell-based, Pseudomonas aeruginosa; conditions: PRMSE, catechol at 0.25 times the MIC; CCCP 100 μM; untreated cells 30.9
Method: as §1

[4] = test system: proton motive force-driven multidrug efflux pump of E. coli CFT073; experiment: Ethidium bromide (EtBr) efflux assay; assay type: cell-based, Escherichia coli; conditions: PRMSE, catechol at 0.25 times the MIC; CCCP 100 μM; untreated cells 36.9
Method: as §1

[5] = test system: cell membrane of E. coli CFT073; experiment: BacLight membrane integrity assay; assay type: cell-based, Escherichia coli; conditions: PRMSE, catechol at 4 × MIC for 10 min; CTAB 10 μM; untreated = 100
Method: (§2) The BacLight kit (L-13152, Invitrogen™, Life Technologies Inc., Canada) is used to assess cell membrane damage. Overnight bacterial cultures are diluted 1:40 in fresh MHBII broth to a final volume of 5 mL, grown to an OD600 of 0.5-0.6, washed with filter-sterilized 10 mM phosphate buffered saline (PBS, pH 7.0) and resuspended in 1/10 of the original volume. […] Cultures are incubated at room temperature (21±2° C.) on a tube rocker for 10 min. At the end of the incubation period, an aliquot is taken for CFU counts and the remaining suspension is washed with 10 mM PBS and resuspended to an OD600) of 0.3. An aliquot (100 μL) of each bacterial suspension is removed and added to a 96-well, black, clear-bottom plate (Corning™, Fisher Scientific, ON, Canada) along with an equal volume of the BacLight™ reagent (2× stock solution, L13152, Invitrogen™, Life Technologies Inc., Canada) and the plates are incubated for 10 min at room temperature in the dark. At the end of the incubation period, fluorescence intensity is recorded for both kit components, SYTO-9 (ex/em 485/530 nm) and propidium iodide (ex/em 485/645 nm), using the microplate reader. Fluorescence readings from samples are normalized to the values obtained from untreated control to determine the ratio of membrane compromised cells to cells with intact membrane. […]

P. aeruginosa PA14 = experiment: Bacterial colony forming ability (CFU counts after exposure); assay type: cell-based, Pseudomonas aeruginosa; conditions: log decrease vs untreated control; 4 × MIC, 10 min; CTAB 10 μM
Method: (§3) The BacLight kit (L-13152, Invitrogen™, Life Technologies Inc., Canada) is used to assess cell membrane damage. Overnight bacterial cultures are diluted 1:40 in fresh MHBII broth to a final volume of 5 mL, grown to an OD600 of 0.5-0.6, washed with filter-sterilized 10 mM phosphate buffered saline (PBS, pH 7.0) and resuspended in 1/10 of the original volume. […] Cultures are incubated at room temperature (21±2° C.) on a tube rocker for 10 min. At the end of the incubation period, an aliquot is taken for CFU counts and the remaining suspension is washed with 10 mM PBS and resuspended to an OD600) of 0.3. An aliquot (100 μL) of each bacterial suspension is removed and added to a 96-well, black, clear-bottom plate (Corning™, Fisher Scientific, ON, Canada) along with an equal volume of the BacLight™ reagent (2× stock solution, L13152, Invitrogen™, Life Technologies Inc., Canada) and the plates are incubated for 10 min at room temperature in the dark. At the end of the incubation period, fluorescence intensity is recorded for both kit components, SYTO-9 (ex/em 485/530 nm) and propidium iodide (ex/em 485/645 nm), using the microplate reader. Fluorescence readings from samples are normalized to the values obtained from untreated control to determine the ratio of membrane compromised cells to cells with intact membrane. Cetyltrimethylammonium bromide (CTAB, Sigma-Aldrich Canada), a cationic detergent that is known to cause membrane damage, is used at concentration of 10 μM as a positive control for membrane disruption.

P. aeruginosa PAO1 = experiment: as above; assay type: cell-based, Pseudomonas aeruginosa; conditions: log decrease vs untreated control; 4 × MIC, 10 min; CTAB 10 μM
Method: as §3

E. coli CFT073 = experiment: as above; assay type: cell-based, Escherichia coli; conditions: log decrease vs untreated control; 4 × MIC, 10 min; CTAB 10 μM
Method: as §3

P. mirabilis HI4320 = experiment: as above; assay type: cell-based, Proteus mirabilis; conditions: log decrease vs untreated control; 4 × MIC, 10 min; CTAB 10 μM
Method: as §3

[6] = test system: cell membrane of P. aeruginosa PA14; experiment: BacLight membrane integrity assay; assay type: cell-based, Pseudomonas aeruginosa; conditions: PRMSE, catechol at 4 × MIC for 10 min; CTAB 10 μM; untreated = 100
Method: as §3

[7] = test system: cell membrane of P. aeruginosa PAO1; experiment: BacLight membrane integrity assay; assay type: cell-based, Pseudomonas aeruginosa; conditions: PRMSE, catechol at 4 × MIC for 10 min; CTAB 10 μM; untreated = 100
Method: as §3

[8] = test system: cell membrane of P. mirabilis HI4320; experiment: BacLight membrane integrity assay; assay type: cell-based, Proteus mirabilis; conditions: PRMSE, catechol at 4 × MIC for 10 min; CTAB 10 μM; untreated = 100
Method: as §2

| SMILES | Efflux pump activity [1] [%] | % EtBr efflux [2] [%] | Efflux pump activity [3] [%] | Efflux pump activity [4] [%] | % cells with uncompromised membrane (BacLight assay) [5] [%] | Bacterial colony forming ability (Δ log CFU mL^−1) (P. aeruginosa PA14) | Bacterial colony forming ability (Δ log CFU mL^−1) (P. aeruginosa PAO1) | Bacterial colony forming ability (Δ log CFU mL^−1) (E. coli CFT073) | Bacterial colony forming ability (Δ log CFU mL^−1) (P. mirabilis HI4320) | % cells with uncompromised membrane [6] [%] | % cells with uncompromised membrane [7] [%] | % cells with uncompromised membrane [8] [%] |
| --- | --- | --- | --- | --- | --- | --- | --- | --- | --- | --- | --- | --- |
| N#CC(C#N)=NNc1cccc(Cl)c1 [CCCP, carbonyl cyanide m-chlorophenylhydrazone, reference compound] | 14.5 | 19.3 | 17 | 15.8 | – | – | – | – | – | – | – | – |
| CCCCCCCCCCCCCCCC[N+](C)(C)C.[Br-] [CTAB, cetyltrimethyl-ammonium bromide, reference compound] | – | – | – | – | 0 | 4.9 Δ log CFU mL^−1 | 5.1 Δ log CFU mL^−1 | 5.7 Δ log CFU mL^−1 | 4.5 Δ log CFU mL^−1 | 0 | 0 | 0 |

— US10206906B2, “Synergistic combination of a phenolic-rich maple syrup extract and an antibiotic” (priority 2015, dated 2019)
